Patent US12071434B2, “Heterocyclic compound” (Takeda Pharmaceutical Company Limited, priority 2018, dated 2024)

Target: T1, human orexin type 2 receptor (Homo sapiens, UniProt O43614)
T1 construct: expressed in transfected cells
T1 sequence (O43614 1-444): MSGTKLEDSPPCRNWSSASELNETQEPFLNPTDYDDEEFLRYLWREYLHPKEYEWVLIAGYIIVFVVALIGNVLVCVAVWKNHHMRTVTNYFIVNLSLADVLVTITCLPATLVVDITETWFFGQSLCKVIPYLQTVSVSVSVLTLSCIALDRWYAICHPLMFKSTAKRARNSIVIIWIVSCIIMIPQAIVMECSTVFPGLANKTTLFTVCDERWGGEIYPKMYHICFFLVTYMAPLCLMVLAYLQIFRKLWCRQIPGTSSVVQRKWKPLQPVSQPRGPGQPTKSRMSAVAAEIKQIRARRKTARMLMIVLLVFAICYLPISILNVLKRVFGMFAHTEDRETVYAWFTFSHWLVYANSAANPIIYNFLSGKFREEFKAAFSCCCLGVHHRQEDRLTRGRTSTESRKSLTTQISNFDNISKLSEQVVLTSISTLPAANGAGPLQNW
Test: Measurement of orexin type 2 receptor agonist activity (calcium fluorescence, Fluo-4 AM, FDSS) in CHO cells forcibly expressing human OX2 receptor
Type: cell-based
Details: test compound 3 μM, DMSO = 0%, orexin A (human) 10 nM = 100%
Excerpt: To obtain a cell clone stably expressing human orexin type 2 receptor, human orexin type 2 receptor cDNA was inserted into pcDNA3.1(+) plasmid vector (Invitrogen), and a plasmid DNA for expression of human orexin type 2 receptor (pcDNA3.1(+)/hOX2R) was cloned. The plasmid DNA was introduced into CHO-dhfr cell by an electroporation method, and human orexin type 2 receptor expressing clone cells were obtained by limiting dilution method by using G418 drug resistance as a selection marker.
CHO cells forcibly expressing human OX2 receptor were seeded in each well of 384 well black transparent bottom plate (BD Falcon) at 7,500 cells/well, and cultured for one day in a 5% CO2 incubator at 37° C. After removal of the medium in the cell plate, assay buffer A containing a calcium indicator (HBSS (Thermo Fisher Scientific), 20 mM HEPES (Thermo Fisher Scientific), 0.1% BSA (Sigma-Aldrich), 2.5 μg/mL Fluo-4 AM (DOJINDO Chemical), 0.08% Pluronic F127 (DOJINDO Chemical), 1.25 mM probenecid (DOJINDO Chemical)) was added at 30 μL/well. The plate was stood for 30 min in a 5% CO2 incubator at 37° C., and further stood at room temperature for 30 min. A test compound prepared by diluting with assay buffer B (HBSS, 20 mM HEPES, 0.1% BSA) was added at 10 μL/well, and the fluorescence value was measured by FDSSpCELL (Hamamatsu Photonics K.K.) every one sec for 1 min, and thereafter every two sec for 1 min 40 sec. The activity (%) of the test compound was calculated assuming that variation in the fluorescence value when DMSO was added instead of the test compound was 0%, and variation in the fluorescence value when orexin A (human) (PEPTIDE INSTITUTE, INC.) was added at the final concentration of 10 nM was 100%.

Row | Compound | 0X2R agonist activity (3 μM, %) [%]
1 | CC(C)n1cnc2c(c1=O)[C@@H](Cc1ccccc1Oc1ccccc1)[C@@H](NS(C)(=O)=O)CC2 (racemic) [Example 133, rac-N-[(5R,6S)-4-oxo-5-[(2-phenoxyphenyl)methyl]-3-(propan-2-yl)-3,4,5,6,7,8-hexahydroquinazolin-6-yl]methanesulfonamide] | 72
2 | Cc1ccc2n(c1=O)[C@@H](Cc1csc(-c3ccccc3)n1)[C@@H](NS(C)(=O)=O)CC2 (racemic) [Example 58, rac-N-{(3S,4S)-7-methyl-6-oxo-4-[(2-phenyl-1,3-thiazol-4-yl)methyl]-1,3,4,6-tetrahydro-2H-quinolizin-3-yl}methanesulfonamide] | 92
3 | CN1CC[C@@H]2CC[C@H](NS(C)(=O)=O)[C@H](Cc3cccc(-c4ccccc4)c3)N2C1=O (racemic) [Example 62, rac-N-{(4aS,7S,8S)-8-[([1,1′-biphenyl]-3-yl)methyl]-2-methyl-1-oxooctahydro-1H-pyrido[1,2-c]pyrimidin-7-yl}methanesulfonamide] | 92
4 | CCn1ccc2c(c1=O)[C@@H](Cc1cccc(-c3cc(F)cc(C)c3F)c1)[C@@H](NS(C)(=O)=O)CC2 (racemic) [Example 127, rac-N-{(7S,8R)-8-[(2′,5′-difluoro-3′-methyl[1,1′-biphenyl]-3-yl)methyl]-2-ethyl-1-oxo-1,2,5,6,7,8-hexahydroisoquinolin-7-yl}methanesulfonamide] | 105
5 | Cc1ccc2n(c1=O)[C@@H](Cc1cccc(-c3cc(F)cc(F)c3)n1)[C@@H](NS(C)(=O)=O)CC2 (racemic) [Example 60, rac-N-[(3S,4S)-4-{[6-(3,5-difluorophenyl)pyridin-2-yl]methyl}-7-methyl-6-oxo-1,3,4,6-tetrahydro-2H-quinolizin-3-yl]methanesulfonamide] | 83
6 | CC(C)n1cc2n(c1=O)[C@@H](Cc1cccc(-c3ccccc3)c1)[C@@H](NS(C)(=O)=O)CC2 (racemic) [Example 203, rac-N-[(5S,6S)-5-[([1,1′-biphenyl]-3-yl)methyl]-3-oxo-2-(propan-2-yl)-2,3,5,6,7,8-hexahydroimidazo[1,5-a]pyridin-6-yl]methanesulfonamide] | 86
7 | CC(C)c1nn(C)c2c(c1=O)[C@@H](Cc1cccc(-c3ccccc3)c1)[C@@H](NS(C)(=O)=O)CC2 (relative stereo) [Example 161, rel-N-[(5R,6S)-5-[([1,1′-biphenyl]-3-yl)methyl]-1-methyl-4-oxo-3-(propan-2-yl)-1,4,5,6,7,8-hexahydrocinnolin-6-yl]methanesulfonamide] | 101
8 | Cc1ccc2n(c1=O)C(Cc1cccc(-c3cccc(F)c3)c1)C(NC(=O)[C@@H]1CCCO1)CC2 (mixture of isomers) [Example 26, (2S)-N-{(3SR,4SR)-4-[(3′-fluoro[1,1′-biphenyl]-3-yl)methyl]-7-methyl-6-oxo-1,3,4,6-tetrahydro-2H-quinolizin-3-yl}oxolane-2-carboxamide] | 101
9 | Cc1ccc2n(c1=O)[C@@H](Cc1csc(-c3cccc(F)c3)n1)[C@@H](NS(C)(=O)=O)CC2 (racemic) [Example 64, rac-N-[(3S,4S)-4-{[2-(3-fluorophenyl)-1,3-thiazol-4-yl]methyl}-7-methyl-6-oxo-1,3,4,6-tetrahydro-2H-quinolizin-3-yl]methanesulfonamide] | 100
10 | CC(C)n1cnc2c(c1=O)[C@@H](Cc1csc(-c3cccc(F)c3F)n1)[C@@H](NS(C)(=O)=O)CC2 (relative stereo) [Example 154, rel-N-[(5R,6S)-5-{[2-(2,3-difluorophenyl)-1,3-thiazol-4-yl]methyl}-4-oxo-3-(propan-2-yl)-3,4,5,6,7,8-hexahydroquinazolin-6-yl]methanesulfonamide] | 100
11 | CCS(=O)(=O)N[C@H]1CCc2ncn(C(C)C)c(=O)c2[C@H]1Cc1cccc(-c2cc(C)cc(C)n2)c1 (racemic) [Example 102, rac-N-[(5R,6S)-5-{[3-(4,6-dimethylpyridin-2-yl)phenyl]methyl}-4-oxo-3-(propan-2-yl)-3,4,5,6,7,8-hexahydroquinazolin-6-yl]ethanesulfonamide] | 100
12 | CS(=O)(=O)NC1CCc2ccc(C(F)(F)F)c(=O)n2C1Cc1cccc(-c2ccccc2)c1 (racemic) [Example 12, rac-N-[(3S,4S)-4-[([1,1′-biphenyl]-3-yl]methyl-6-oxo-7-(trifluoromethyl)-1,3,4,6-tetrahydro-2H-quinolizin-3-yl]methanesulfonamide] | 112
13 | CC1OC[C@@H]2CC[C@H](NS(C)(=O)=O)[C@H](Cc3cccc(-c4cccc(F)c4)c3)N2C1=O (relative stereo) [Example 140, rel-N-{(6S,7S,9aS)-6-[(3′-fluoro[1,1′-biphenyl]-3-yl)methyl]-3-methyl-4-oxooctahydropyrido[2,1-c][1,4]oxazin-7-yl}methanesulfonamide] | 94

Continued, values first:

Row | 0X2R agonist activity (3 μM, %) [%] | Compound
14 | 101 | CC(C)n1cnc2c(c1=O)C(Cc1cccc(-c3cccc(F)c3)c1)C(NS(C)(=O)=O)CC2 [Example 89, rel-N-[(5R,6S)-5-[(3′-fluoro[1,1′-biphenyl]-3-yl)methyl]-4-oxo-3-(propan-2-yl)-3,4,5,6,7,8-hexahydroisoquinazolin-6-yl]methanesulfonamide]
15 | 97 | CC(C)n1cnc2c(c1=O)[C@@H](Cc1cccc(-c3cccc(F)c3F)c1)[C@@H](NS(=O)(=O)C1CC1)CC2 [Example 193, N-[(5R,6S)-5-[(2′,3′-difluoro[1,1′-biphenyl]-3-yl)methyl]-4-oxo-3-(propan-2-yl)-3,4,5,6,7,8-hexahydroquinazolin-6-yl]cyclopropanesulfonamide]
16 | 90 | CCn1c(C)nc2c(c1=O)C(Cc1cccc(-c3ccccc3)c1)C(NS(C)(=O)=O)CC2 (racemic) [Example 71, rac-N-{(5R,6S)-5-[([1,1′-biphenyl]-3-methyl]-3-ethyl-2-methyl-4-oxo-3,4,5,6,7,8-hexahydroquinazolin-6-yl}methanesulfonamide]
17 | 100 | CCS(=O)(=O)N[C@H]1CCc2ncn(C(C)C)c(=O)c2[C@H]1Cc1cccc(-c2cccc(C)c2F)c1 (racemic) [Example 83, rac-N-[(5R,6S)-5-[(2′-fluoro-3′-methyl[1,1′-biphenyl]-3-yl)methyl]-4-oxo-3-(propan-2-yl)-3,4,5,6,7,8-hexahydroquinazolin-6-yl]ethanesulfonamide]
18 | 96 | CC(C)n1cnc2c(c1=O)[C@@H](Cc1cccc(-c3ccccc3)c1F)[C@@H](NS(=O)(=O)C1CC1)[C@H](F)C2 (relative stereo) [Example 206, rel-N-[(5R,6R,7R)-7-fluoro-5-[(2-fluoro[1,1′-biphenyl]-3-yl)methyl]-4-oxo-3-(propan-2-yl)-3,4,5,6,7,8-hexahydroquinazolin-6-yl]cyclopropanesulfonamide]
19 | 95 | CC(C)n1cnc2c(c1=O)[C@@H](Cc1cccc(-c3ccccc3)c1)[C@@H](NS(C)(=O)=O)CC2 (relative stereo) [Example 99, rel-N-[(5R,6S)-5-[([1,1′-biphenyl]-3-yl)methyl]-4-oxo-3-(propan-2-yl)-3,4,5,6,7,8-hexahydroquinazolin-6-yl]methanesulfonamide]
20 | 111 | CC(C)n1cnc2c(c1=O)[C@@H](Cc1cccc(-c3ccccc3)c1)[C@@H](NS(=O)(=O)C1CC1)CC2 (racemic) [Example 134, rac-N-[(5R,6S)-5-[([1,1′-biphenyl]-3-yl)methyl]-4-oxo-3-(propan-2-yl)-3,4,5,6,7,8-hexahydroquinazolin-6-yl]cyclopropanesulfonamide]
21 | 90 | CC(C)n1ccc2c(c1=O)[C@@H](Cc1cccc(-c3ccccc3)c1)[C@@H](NS(C)(=O)=O)CC2 (racemic) [Example 52, rac-N-[(7S,8R)-8-[([1,1′-biphenyl]-3-yl)methyl]-1-oxo-2-(propan-2-yl)-1,2,5,6,7,8-hexahydroisoquinolin-7-yl]methane sulfonamide]
